Test results reported in US5093320A, “Novel peptides inhibiting the maturation of t-lymphocytes and the activity of macrophages, pharmaceutical compositions containing them and process for preparing same” (priority 1989, dated 1992).
Where two headings read alike, the source gives them in different places. Positions of bridges follow the written chain, without caps; N, C: chain ends. Residues, ends and D or L forms follow the SMILES beside them. Chains are numbered I, II in the order given.

Key:
[1] = tested on: late hypersensitive (DTH) response; assay type: in vivo, CFLP (LATI) mice; conditions: mice sensitized with oxazolone
Procedure: This test was carried out on male CFLP (LATI) mice weighing 25 to 30 g. At the beginning of the experiment, the mice were treated with a 3% solution of oxazolone in anhydrous ethanol by applying 20 μl of solution each on both ears and forepaws. […] The controls were treated only with saline. On day 10 of the experiment, 20 μl of an 2.5% olive oil solution of oxazolone were smeared on each ear of the animals. The thickness of the ears was twice measured, i.e. before and 24 hours after the administration of the antigen. The thickness was measured on both ears in the middle of the ear-lobes with an accuracy of 0.01 mm. The change was compared with the control group. The data concerning the suppression of the development of a DTH response are given as percentage values in Table 4.

[2] = tested on: primary antibody production; assay: Effect on the primary antibody production in newborn rats (haemagglutinin titre); assay type: in vivo, Wistar (LATI) rats; conditions: 1 mg/kg i.p. within 12 hours after birth, haemagglutinin titre on day 7 following immunization with sheep erythrocytes
Procedure: This study is based on the phenomenon of agglutination. A specific antiserum adheres to the surface of the antigen forming large granules which settle rapidly (agglutinate).
Newborn Wistar (LATI) rats were intraperitoneally (i.p.) treated with an 1 mg/kg dose of the test substance within 12 hours after birth. On the 14th day, the animals were i.p. immunized by 0.5 ml of an 1% suspension of sheep erythrocytes. On day 7 following the immunization, blood was taken retroorbitally, after 30 minutes the sera were separated by centrifuging and the haemagglutinin titre was determined according to the method of Takatsy [Acta Microbiol. Acad. Sci. Hung. 3, 191 (1955)]. From the mixed sera (50 μl) of two rats, halving dilutions were prepared in 12 steps. Each sample was given 25 /ul of a 2% suspension of sheep erythroxytes The mixture was incubated at 37° C. for one hour to evaluate the agglutination. The data are summarized in Table 2 which show the suppressing (inhibitory) effect of the compounds on the primary antibody production as a percentage value in relation to the untreated animals. Immunostimulating substances show just the opposite effect in this test.

[3] = tested on: resting macrophages; assay type: in vivo, CFLP (LATI) mice; conditions: mice
Procedure: The phagocytating capacity of resting macrophage cells was investigated on mice [J. Immunopharmacol. 4, 265 (1982-1983)]. […] After bleeding the animals, their peritonea were washed with 8 ml of PBS buffer solution (phosphate buffered saline, pH=7.2) each containing 10 IU of heparin. The cell suspension washed out from the peritoneum was made free of the erythrocytes by shocking with distilled water, then washed 3 times with PBS buffer solution. The sedimentation between two washings was achieved by centrifuging at 1000 rpm for 5 minutes. The concentration of each cell suspension was adjusted to 10^6 cell/ml and the suspension was settled for 30 minutes in a Boyden-chamber at 37° C. in an atmosphere containing 5% of carbon dioxide. Over the macrophages adhered to the glass wall, opsonized yeast was layered. After removing the non-phagocytated particles, those incorporated by the macrophages were counted in each cell. In Table 3, the percentage of decrease in the count of phagocytated yeast cells is given in relation to the macrophages isolated from the untreated animals as control.

[4] = therapeutic dose does not significantly differ from the toxic one; cited from earlier work
[5] = tested on: antibody-producing cells; assay: Effect on the antibody-producing cells in newborn rats (plaque-forming cell count of splenocytes); assay type: in vivo, Wistar (LATI) rats; conditions: 1 mg/kg i.p. within 12 hours of birth, immunized day 14 with sheep erythrocytes, splenocytes 7 days later, vs untreated control
Procedure: This investigation was carried out with splenocytes obtained from newborn rats according to the method of Canningham (Handbook of Experimental Immunology, Ed. D. M. Weir, Vol. 2., Blackwell, Oxford-London, page 285, 1978). Twelve Wistar (LATI) rats arising from a single litter were intraperitoneally (i.p.) treated with 7.5 μg of test substance in a dose of 1 mg/kg within 12 hours of their birth. On the 14th day after birth, the animals were i.p. immunized by 0.5 ml of an 1% suspension of sheep erythrocytes, then bled by decapitation after 7 days. From the splenocytes obtained from the animals, a homogeneous suspension was prepared using sheep erythrocyte suspension and complement which was then put into a chamber suitable for obtaining a monocellular layer. The chambers closed with paraffin were incubated at 37° C. for 45 minutes. Around the antibody-producing splenocytes, lytic areas, the so-called plaques, were formed. Under the effect of treatment with the suppressing substances, the number of the plaque-forming cells (PFC) was decreased. The data summarized in Table 1 illustrate this percentage decrease calculated on the basis of the cells obtained from the untreated control animals.

[6] = 1 mg/kg i.p. on day 7, ear thickness 24 hours after antigen on day 10, vs saline control
[7] = 1 mg/kg s.c. daily for 7 days, count of phagocytated yeast cells vs untreated animals

SMILES | Suppression of the DTH response, Suppression % [1, 6] [%] | Change in the phagocytating capacity of resting macrophages, Change % [3, 7] [%] | Suppression of the antibody production, Change % (number of plaque-forming cells) [5] [%] | also measured
C[C@@H](O)[C@H](NC(=O)[C@H](CO)NC(=O)[C@H](CO)NC(=O)[C@@H](N)CO)C(=O)O [(15), Ser-Ser-Ser-Thr] (H-SSST-OH) | 18.0 |  |  | 
N=C(N)NCCC[C@H](N)C(=O)N[C@@H](CCCCN)C(=O)N[C@@H](CC(=O)O)C(=O)N[C@@H](CSSC[C@H](NC(=O)[C@H](CC(=O)O)NC(=O)[C@H](CCCCN)NC(=O)[C@@H](N)CCCNC(=N)N)C(N)=O)C(N)=O [(12)] (I: H-RKDC-NH2 / II: H-RKDC-NH2; disulfide I:4-II:4) | 35.3 | -40.1 |  | Effect on the primary antibody production, Change in relation to the untreated control % [2]: -10.7%
O=P1(N(CCCl)CCCl)NCCCO1 (stereo not drawn) [Cyclophosphamide, 2-[-bis(2-chloroethyl)amino]-tetrahydro-2H-1,3,2-oxazaphosphorine-2-oxide, reference compound] |  |  |  | Change in the phagocytating capacity of resting macrophages, Change % ([3]; 150 mg/kg i.p. dose): -75.0%; Suppression of the DTH response, Suppression % ([1]; 150 mg/kg i.p. dose): 72%; therapeutic index [4]: below 10
CC(C)C[C@H](NC(=O)[C@H](CCCCN)NC(=O)[C@@H](N)CO)C(=O)O [(14), Ser-Lys-Leu] (H-Ser-Lys-Leu-OH) | 22.7 | -14.0 |  | 
C[C@@H](O)[C@H](NC(=O)[C@H](CCCCN)NC(=O)[C@@H](N)CCCCN)C(=O)N[C@@H](CCC(=O)O)C(=O)O [(19), Lys-Lys-Thr-Glu] (H-KKTE-OH) |  | -18.6 | -22.9 | Effect on the primary antibody production, Change in relation to the untreated control % [2]: -10.8%
C[C@@H](O)[C@H](NC(=O)[C@H](CCC(=O)O)NC(=O)[C@@H](NC(=O)[C@@H](N)CCCCN)[C@@H](C)O)C(=O)O [(17), Lys-Thr-Glu-Thr] (H-KTET-OH) | 35.5 | -17.5 | -23.2 | 
CC(C)C[C@H](NC(=O)[C@H](CCCCN)NC(=O)[C@@H]1CCCN1)C(=O)N[C@H](C(=O)O)[C@@H](C)O [(18), Pro-Lys-Leu-Thr] (H-PKLT-OH) |  | -11.7 | -19.4 | 
CC(C)C[C@H](NC(=O)[C@H](CCCCN)NC(=O)[C@H](CO)NC(=O)[C@@H](N)CCCCN)C(=O)O [(13), Lys-Ser-Lys-Leu] (H-KSKL-OH) | 28.2 |  |  | 
C[C@@H](O)[C@H](NC(=O)[C@H](CCC(=O)O)NC(=O)[C@@H](N)CCCCN)C(=O)O [(16), Lys-Glu-Thr] (H-Lys-Glu-Thr-OH) | 27.5 |  | -36.8 | 
Cn1cnc([N+](=O)[O-])c1Sc1ncnc2nc[nH]c12 [azathioprin, 6-(1-methyl-4-nitro-5-imidazolylthio)purine] |  |  |  | therapeutic index [4]: below 10
